Values quoted from earlier work, collected in US7625410B2, “Stent device and method” (Boston Scientific Scimed, Inc., priority 2001, dated 2009).

Experiments:
[1] = tested on: human and rat aortic smooth muscle cells and endothelial cell proliferation
[2] = not given; remark: listed apart in the source

Q: For `C=CC[C@@H]1/C=C(\C)C[C@H](C)C[C@H](OC)[C@H]2O[C@@](O)(C(=O)C(=O)N3CCCC[C@H]3C(=O)O[C@H](/C(C)=C/[C@@H]3CC[C@@H](O)[C@H](OC)C3)[C@H](C)[C@@H](O)CC1=O)[C@H](C)C[C@@H]2OC` [tacrolimus], which “antiproliferative properties on vascular cells” value ([1]; human and rat aortic smooth muscle cells and endothelial cells) is on record?
A: The value was “very modest antiproliferative properties”.

Q: What about the “transition to the secretory smooth muscle cell type” value ([1]; smooth muscle cells, type responsible for the restenosis build up) of the same compound?
A: Its value is “practically totally inhibited”.

Q: What about the “solubility in organic solvents” value (chloroform, ethylacetate acetone, and ethanol) of the same compound?
A: The value was “soluble”.

Q: What about the solubility in water (water) of the same compound?
A: Its solubility in water is “practically insoluble in water”.

Q: What about the halflife ([2]; assumed value used for the estimate of systemic dosage) of the same compound?
A: The halflife was 12 h.

Q: And the “distribution in the blood” value ([2]; blood)?
A: The value was “primarily intracellular in red blood cells”.

Q: What about the “binding in the plasma” value ([2]; plasma) of the same compound?
A: The value was “bound to α-1 sour glycoproteins and albumins”.
